We go through three compounds from ChEMBL document CHEMBL1212708, “Sialic acid dependence in rotavirus host cell invasion” (Nat Chem Biol, 2009).

The test system of experiment [1] is Rotavirus. Description: Binding affinity to sialidase-insensitive Rotavirus Wa VP8 at 3.5 mM by STD NMR spectrum.
The subject of experiment [2] is Rotavirus. Put plainly: Binding affinity to […] Rotavirus CRW-8 VP8 at 3.5 mM by STD NMR spectrum.
In experiment [3] the test system is Rotavirus. Put plainly: Binding affinity to sialidase-insensitive Rotavirus Wa VP8 protein at 0.46 mM by STD NMR spectral analysis.
Experiment [4] deals with Rotavirus. Put plainly: Binding affinity to […] Rotavirus CRW-8 VP8 at 1.2 mM by STD NMR spectrum.
The test system of experiment [5] is MA104. Description: Inhibition of Rotavirus CRW-8 VP8-mediated binding to monkey MA104 cells at 10 mM after 1 hr by immunofluorescence assay in presence of sialidase. The class given is cell-based.
For experiment [6], the system named is MA104. Put plainly: Inhibition of Rotavirus CRW-8 VP8-mediated binding to monkey MA104 cells at 10 mM after 1 hr by immunofluorescence assay. It counts as cell-based.
Experiment [7] deals with MA104. Description: Inhibition of Rotavirus CRW-8 VP8-mediated infectivity in monkey MA104 cells at 10 mM after 1 hr by immunofluorescence assay in presence of sialidase. It counts as cell-based.
The subject of experiment [8] is MA104. Description: Inhibition of Rotavirus Wa VP8-mediated infectivity in monkey MA104 cells at 10 mM after 1 hr by immunofluorescence assay. The class given is cell-based.
Experiment [9] deals with MA104. Description: Inhibition of Rotavirus Wa VP8-mediated binding to monkey MA104 cells at 10 mM after 1 hr by immunofluorescence assay in presence of sialidase. It counts as cell-based.
For experiment [10], the system named is MA104. Description: Inhibition of Rotavirus Wa VP8-mediated binding to monkey MA104 cells at 10 mM after 1 hr by immunofluorescence assay. The class given is cell-based.
Experiment [11] deals with MA104. Description: Inhibition of Rotavirus CRW-8 VP8-mediated infectivity in monkey MA104 cells at 10 mM after 1 hr by immunofluorescence assay. The class given is cell-based.
In experiment [12] the test system is MA104. Description: Inhibition of Rotavirus Wa VP8-mediated infectivity in monkey MA104 cells at 10 mM after 1 hr by immunofluorescence assay in presence of sialidase. It counts as cell-based.

The source made the active and inactive calls. The calls are words filed in the database; no cut-off is given here.

With `CC(=O)N[C@H]1[C@@H](O[C@@H]2[C@H](O[C@]3(C(=O)O)C[C@H](O)[C@@H](NC(C)=O)[C@H]([C@H](O)[C@H](O)CO)O3)[C@@H](O)[C@H](O[C@H]3[C@H](O)[C@@H](O)C(O)O[C@@H]3CO)O[C@@H]2CO)O[C@H](CO)[C@H](O)[C@@H]1O[C@@H]1O[C@H](CO)[C@H](O)[C@H](O)[C@H]1O` (some centres not stated), the result in experiment [1] was Active. The outcome in experiment [2] was inactive.
Take `CC(=O)N[C@H]1[C@@H](O[C@@H]2[C@H](O[C@]3(C(=O)O)C[C@H](O)[C@@H](NC(C)=O)[C@H]([C@H](O)[C@H](O)CO)O3)[C@@H](O)[C@H](O[C@H]3[C@H](O)[C@@H](O)C(O)O[C@@H]3CO)O[C@@H]2CO)O[C@H](CO)[C@H](O)[C@@H]1O[C@@H]1O[C@H](CO)[C@H](O)[C@H](O[C@]2(C(=O)O)C[C@H](O)[C@@H](NC(C)=O)[C@H]([C@H](O)[C@H](O)CO)O2)[C@H]1O` (some centres not stated): the result in experiment [3] was inactive. Also, the result in [4] was Active.
In general, inhibition refers to the relative decrease from the control value, in per cent. `CO[C@]1(C(=O)O)C[C@H](O)[C@@H](NC(C)=O)[C@H]([C@H](O)[C@H](O)CO)O1`: the result in [5] and in [7] was inactive. For the same compound, the inhibition in [6] was found to be 35%; in [10], 45%; in experiment [11], 52%; in experiment [12], 26%. In addition, in experiment [8], the inhibition entry is “inactive”. Moreover, in [9], the inhibition entry was “Active”.
